This note sets out measurements from US8217060B2, “Benzimidazole derivatives useful as TRP M8 receptor modulators” (Janssen Pharmaceutica, NV, priority 2009, dated 2012).

The target of the experiment is T1, canine TRPM8 (Canis lupus familiaris, UniProt Q1A7N1).
T1 construct: expressed in transfected cells
Kind of experiment: In Vitro Canine TRPM8 Functional Assay (icilin-induced intracellular Ca2+ fluorescence, FLIPR/FDSS). To be noted: HEK293 cells stably expressing canine TRPM8; for inhibition at 0.2 µM: 0.2 μM test compound, icilin challenge; for IC50: icilin challenge (~80% maximal response), eight-point dose-response. In kind it is cell-based. As for the experimental part:
The functional activity of representative compounds of the formula (I) of the present invention were measured by measuring changes in intracellular calcium concentration using a Ca^2+-sensitive fluorescent dye. The changes in fluorescent signal were monitored by a fluorescence plate reader, either a FLIPR™ (Molecular Devices) or FDSS (Hamamatsu).
HEK293 cells stably expressing canine TRPM8 were routinely grown as monolayers in Dulbecco's minimum essential medium supplemented with 10% FBS, 2 mM L-glutamine, 100 units/mL penicillin, 100 ug/mL streptomycin and 400 μg/mL G418. Cells were maintained in 5% CO2 at 37° C. At 24 hrs prior to assay, cells were seeded in black wall, clear-base poly-D-lysine coated 384-well plates (BD Biosciences, NJ, USA) at a density of 5,000 cells per well in culture medium and grown overnight in 5% CO2 at 37° C. On assay day, growth media was removed and cells were loaded with Calcium 3 Dye (Molecular Devices) for 35 min at 37° C., under 5% CO2 and then for 25 min at room temperature and atmosphere. Subsequently, cells were tested for agonist-induced increases in intracellular Ca^2+ levels using FLIPR™ or FDSS. Cells were challenged with compounds of the formula (I) (at varying concentrations) and intracellular Ca^2+ was measured for 5 min prior to the addition of icilin to all wells to achieve a final concentration that produces approximately an 80% maximal response.
Basal FI was subtracted prior to normalizing data to percent of maximal response. Curves were generated using the average of quadruplicate wells for each data point, were analyzed using nonlinear regression of either sigmoidal dose response or sigmoidal dose response (variable slope). Finally, the EC50 and IC50 values were calculated with the best-fit dose curve determined by GraphPad Prism

Counter-ions that a name gives are not always drawn.

T1 sequence (Q1A7N1 1-1104): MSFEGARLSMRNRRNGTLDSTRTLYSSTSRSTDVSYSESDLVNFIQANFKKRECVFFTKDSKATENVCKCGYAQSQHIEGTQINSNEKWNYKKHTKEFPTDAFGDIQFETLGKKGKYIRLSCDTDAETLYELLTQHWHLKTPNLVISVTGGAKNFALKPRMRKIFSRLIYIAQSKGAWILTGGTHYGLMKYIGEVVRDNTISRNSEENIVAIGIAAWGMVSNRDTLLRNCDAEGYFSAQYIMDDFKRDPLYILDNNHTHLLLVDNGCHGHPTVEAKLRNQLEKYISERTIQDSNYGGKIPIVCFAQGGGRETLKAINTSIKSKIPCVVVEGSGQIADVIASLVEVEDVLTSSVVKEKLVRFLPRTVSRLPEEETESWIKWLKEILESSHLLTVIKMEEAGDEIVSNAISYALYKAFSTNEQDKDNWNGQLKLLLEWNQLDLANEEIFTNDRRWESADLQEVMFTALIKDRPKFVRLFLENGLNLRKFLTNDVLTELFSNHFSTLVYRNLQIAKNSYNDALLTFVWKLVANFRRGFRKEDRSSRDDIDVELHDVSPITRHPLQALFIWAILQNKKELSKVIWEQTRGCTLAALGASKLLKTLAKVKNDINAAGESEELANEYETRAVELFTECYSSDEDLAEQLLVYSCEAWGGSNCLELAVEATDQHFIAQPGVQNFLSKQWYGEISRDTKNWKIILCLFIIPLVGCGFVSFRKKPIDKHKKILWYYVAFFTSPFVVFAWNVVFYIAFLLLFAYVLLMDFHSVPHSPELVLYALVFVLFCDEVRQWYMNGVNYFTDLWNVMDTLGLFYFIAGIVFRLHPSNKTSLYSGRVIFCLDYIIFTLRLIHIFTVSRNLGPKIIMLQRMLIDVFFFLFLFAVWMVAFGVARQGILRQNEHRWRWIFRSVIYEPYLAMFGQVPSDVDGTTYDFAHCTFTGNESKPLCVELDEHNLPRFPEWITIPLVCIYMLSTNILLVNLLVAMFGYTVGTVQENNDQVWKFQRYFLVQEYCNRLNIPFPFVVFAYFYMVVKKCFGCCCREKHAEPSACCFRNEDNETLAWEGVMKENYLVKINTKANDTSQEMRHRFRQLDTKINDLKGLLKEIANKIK

For the compound `FC(F)(F)c1cccnc1-c1ccc2[nH]c(/C=C/C3CCCCC3)nc2c1` [Compound 60, (E)-2-(2-Cyclohexyl-vinyl)-5-(3-trifluoromethyl-pyridin-2-yl)-1H-benzimidazole], the inhibition at 0.2 µM is 92% and half-maximal inhibition (IC50) required 0.045 µM.

In the case of `COc1cc(F)ccc1-c1ccc2[nH]c(C=CC3CCCCC3)nc2c1` [Compound 12, 2-(2-Cyclohexyl-vinyl)-5-(4-fluoro-2-methoxy-phenyl)-1H-benzimidazole], the inhibition at 0.2 µM was 92% and half-maximal inhibition (IC50) was put at 0.039 µM.

With `CC1(C)CCC(/C=C/c2nc3cc(-c4c(F)cccc4F)ccc3[nH]2)CC1` [Compound 65, (E)-5-(2,6-Difluoro-phenyl)-2-[2-(4,4-dimethyl-cyclohexyl)-vinyl]-1H-benzoimidazole trifluoroacetic acid salt], the inhibition at 0.2 µM came to 96% and the IC50 amounted to 0.055 µM.

In the case of `Fc1cccc(Cl)c1-c1ccc2[nH]c(C=CC3CCCCC3)nc2c1` [Compound 10, 5-(2-Chloro-6-fluoro-phenyl)-2-(2-cyclohexyl-vinyl)-1H-benzimidazole], the inhibition at 0.2 µM was determined as 101% and inhibition was half-maximal at 0.006 µM (IC50).

As for `Cc1ccsc1-c1ccc2[nH]c(C=CC3CCCCC3)nc2c1` [Compound 17, 2-(2-Cyclohexyl-vinyl)-5-(3-methyl-thiophen-2-yl)-1H-benzimidazole], the inhibition at 0.2 µM is 102% and it took 0.017 µM to reach half-maximal inhibition (IC50).

For `FC1=CCC(C=Cc2nc3cc(-c4ccccc4Cl)ccc3[nH]2)CC1` (stereo not drawn) [Compound 34, 5-(2-Chloro-phenyl)-2-[2-(4-fluoro-cyclohex-3-enyl)-vinyl]-1H-benzoimidazole hydrochloride salt], the inhibition at 0.2 µM turned out to be 101% and inhibition was half-maximal at 0.005 µM (IC50).

Consider `Fc1cccc(C(F)(F)F)c1-c1ccc2[nH]c(/C=C/C3CCCCC3)nc2c1` [Compound 57, (E)-2-(2-Cyclohexyl-vinyl)-5-(2-fluoro-6-trifluoromethyl-phenyl)-1H-benzimidazole], for which the inhibition at 0.2 µM came to 101% and inhibition was half-maximal at 0.008 µM (IC50).

Consider `Fc1cccc(F)c1-c1ccc2[nH]c(C=CC3CCCCC3)nc2c1` [Compound 15, 2-(2-Cyclohexyl-vinyl)-5-(2,6-difluoro-phenyl)-1H-benzimidazole], for which the inhibition at 0.2 µM is 102% and the half-maximal inhibitory concentration (IC50) amounted to 0.028 µM.

In the case of `C/C(=C\c1nc2cc(-c3ccccc3C(F)(F)F)ccc2[nH]1)C1CCCCC1` [Compound 69, (E)-2-(2-Cyclohexyl-propenyl)-5-(2-trifluoromethyl-phenyl)-1H-benzimidazole], the inhibition at 0.2 µM was 102% and the half-maximal inhibitory concentration (IC50) is 0.011 µM.

On to `CC(=O)c1ccccc1-c1ccc2[nH]c(C=CC3CCCCC3)nc2c1` [Compound 8, 1-{2-[2-(2-Cyclohexyl-vinyl)-1H-benzimidazol-5-yl]-phenyl}-ethanone], for which the inhibition at 0.2 µM worked out at 97% and half-maximal inhibition (IC50) required 0.041 µM.

Take `COc1ccc(F)cc1-c1ccc2[nH]c(C=CC3CCC(F)(F)CC3)nc2c1` [Compound 45, 2-[2-(4,4-Difluoro-cyclohexyl)-vinyl]-5-(5-fluoro-2-methoxy-phenyl)-1H-benzoimidazole hydrochloride salt]: the inhibition at 0.2 µM was 101% and the IC50 came to 0.007 µM.

For `CC1(C)CCC(/C=C/c2nc3cc(-c4ccccc4C(F)(F)F)ccc3[nH]2)CC1` [Compound 64, (E)-2-[2-(4,4-Dimethyl-cyclohexyl)-vinyl]-5-(2-trifluoromethyl-phenyl)-1H-benzoimidazole hydrochloride], the inhibition at 0.2 µM was 98% and 0.023 µM corresponded to half-maximal inhibition (IC50).

`Cc1cc(-c2ccccc2C(F)(F)F)cc2nc(/C=C/C3CCOCC3)[nH]c12` [Compound 53, (E)-7-Methyl-2-[2-(tetrahydro-pyran-4-yl)-vinyl]-5-(2-trifluoromethyl-phenyl)-1H-benzimidazole hydrochloride]: the inhibition at 0.2 µM stood at 102% and the IC50 was 0.008 µM.

`FC(F)(F)c1ccccc1-c1ccc2[nH]c(/C=C/C34CCC(Br)(CC3)CC4)nc2c1` [Compound 70, (E)-2-[2-(4-Bromo-bicyclo[2.2.2]oct-1-yl)-vinyl]-5-(2-trifluoromethyl-phenyl)-1H-benzoimidazole]: the inhibition at 0.2 µM stood at 97% and the IC50 was 0.011 µM.

Turning to `FC1=CCC(C=Cc2nc3cc(-c4ccccc4C(F)(F)F)ccc3[nH]2)CC1` (stereo not drawn) [Compound 31, 2-[2-(4-Fluoro-cyclohex-3-enyl)-vinyl]-5-(2-trifluoromethyl-phenyl)-1H-benzimidazole], the inhibition at 0.2 µM was found to be 102% and it took 0.006 µM to reach half-maximal inhibition (IC50).

As to `COc1cccc(OC)c1-c1ccc2[nH]c(C=CC3CC=C(F)CC3)nc2c1` (stereo not drawn) [Compound 40, 5-(2,6-Dimethoxy-phenyl)-2-[2-(4-fluoro-cyclohex-3-enyl)-vinyl]-1H-benzoimidazole hydrochloride salt], the inhibition at 0.2 µM was determined as 101% and the IC50 was 0.002 µM.

For the compound `C(=CC1CCCCC1)c1nc2cc(-c3ccccc3)ccc2[nH]1` [Compound 2, 2-(2-Cyclohexyl-vinyl)-5-phenyl-1H-benzimidazole], the inhibition at 0.2 µM is 96% and the half-maximal inhibitory concentration (IC50) stood at 0.11 µM.

With `Fc1ccccc1-c1ccc2[nH]c(/C=C/C3CCOCC3)nc2c1` [Compound 52, (E)-5-(2-Fluoro-phenyl)-2-[2-(tetrahydro-pyran-4-yl)-vinyl]-1H-benzimidazole trifluoroacetic acid salt], the inhibition at 0.2 µM was 91% and the IC50 is 0.07 µM.

`COc1cccc(OC)c1-c1ccc2[nH]c(C=CC3CCC(F)(F)CC3)nc2c1` [Compound 43, 2-[2-(4,4-Difluoro-cyclohexyl)-vinyl]-5-(2,6-dimethoxy-phenyl)-1H-benzoimidazole hydrochloride salt]: the inhibition at 0.2 µM was 100% and the midpoint of inhibition, the IC50, lay at 0.002 µM.

Take `Clc1ccc(Cl)c(-c2ccc3[nH]c(C=CC4CCCCC4)nc3c2)c1` [Compound 19, 2-(2-Cyclohexyl-vinyl)-5-(2,5-dichloro-phenyl)-1H-benzimidazole]: the inhibition at 0.2 µM came to 86% and the concentration for half-maximal inhibition (IC50) is 0.034 µM.

As to `CC1(/C=C/c2nc3cc(-c4c(C(F)(F)F)cccc4C(F)(F)F)ccc3[nH]2)CCOCC1` [Compound 67, (E)-5-(2,6-Bis-trifluoromethyl-phenyl)-2-[2-(4-methyl-tetrahydro-pyran-4-yl)-vinyl]-1H-benzimidazole], the inhibition at 0.2 µM was 100% and inhibition was half-maximal at 0.013 µM (IC50).

With `Cc1cc(-c2ccccc2C(F)(F)F)cc2nc(C=CC3CCCCC3)[nH]c12` [Compound 49, 2-(2-Cyclohexyl-vinyl)-7-methyl-5-(2-trifluoromethyl-phenyl)-1H-benzoimidazole hydrochloride salt], the inhibition at 0.2 µM amounted to 99% and the IC50 was 0.003 µM.

`OCc1ccccc1-c1ccc2[nH]c(/C=C/C3CCCCC3)nc2c1` [Compound 6]: the inhibition at 0.2 µM was determined as 103% and the midpoint of inhibition, the IC50, lay at 0.012 µM.

Turning to `FC1=CCC(C=Cc2nc3cc(-c4ccccc4F)ccc3[nH]2)CC1` (stereo not drawn) [Compound 36, 2-[2-(4-Fluoro-cyclohex-3-enyl)-vinyl]-5-(2-fluoro-phenyl)-1H-benzoimidazole hydrochloride salt], the inhibition at 0.2 µM is 100% and inhibition was half-maximal at 0.016 µM (IC50).

What is called inhibition is the drop in the measured response relative to a control, in per cent. One may read the IC50 as the concentration needed to halve the response being measured. Low readings indicate higher potency, high ones lower potency.
